Like-named read-outs stand apart in the source and are kept apart here.
Tests used:
SMN2 mRNA = assay: RT-qPCR splicing assay, SMN2 mRNA; assay type: cell-based, human; settings: Homo sapiens, canonical junction qPCR panel, Table 4; read-out: SMN2 IC50 (decrease in CJ mRNA levels)
Method in brief: (§1)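 A673 or K562 cells treated 24 h at 37 °C with 11-point 3-fold dilutions (top final 10 uM, DMSO ≤0.25%). Lysates analysed by one-step RT-qPCR for canonical (CJ) and alternative-exon (AJ) junctions, normalized to GAPDH, GUSB or PPIA. ΔΔCt vs DMSO, RQ = 2^(−ΔΔCt), expressed as percentage response.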

HTT mRNA = assay: RT-qPCR splicing assay, HTT mRNA canonical (CJ) and alternative (AJ) junction; assay type: cell-based, human; settings: Homo sapiens; for AC50: HTT alternative junction mRNA, read-out: HTT AJ (increase in AJ mRNA, AC50)
Method in brief: as §1

Target C = assay: RT-qPCR canonical junction panel assay, Target C mRNA; assay type: cell-based; settings: Table 4, read-out: Target C IC50 (decrease in CJ mRNA levels)
Method in brief: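 A673 or K562 cells treated with compound; CJ mRNA quantified by junction-spanning RT-qPCR probe after cDNA synthesis, normalised to GAPDH, GUSB or PPIA and DMSO (2^−ΔΔCt), scaled to set ΔCt assay window; IC50 from 4-parameter fit of CJ decrease.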

K562 cells = assay: Cell Titer Glo 2.0 cell viability (toxicity) assay, K562; settings: 500 cells/well, 72 hours
[1] = HTT canonical junction mRNA, RT-qPCR, read-out: HTT CJ (decrease in CJ mRNA levels, IC50)
[2] = canonical junction qPCR panel, Table 4, read-out: HTT IC50 (decrease in CJ mRNA levels)

Cc1c(O)c(-c2nc(C(=O)NC(C)C)c3cc(N4C[C@@H](C)N[C@@H](C)C4)ccc3n2)cc2cn(C)nc12 [Compound 539, 6-[(3R,5S)-3,5-dimethylpiperazin-1-yl]-2-(6-hydroxy-2,7-dimethylindazol-5-yl)-N-isopropylquinazoline-4-carboxamide]
IC50 (SMN2 mRNA): < 100 nM | AC50 (HTT mRNA; RT-qPCR): < 100 nM | IC50 (HTT mRNA; [1]): < 100 nM | IC50 (HTT mRNA; [2]): < 100 nM | IC50 (Target C): 100 to 1000 nM | Effect of Exemplary Compounds on Cell Viability, K562 (K562 cells): A (A represents <100 nM)

Cc1c(O)c(-c2nc(C(=O)NC3CCC3)c3cc(N4C[C@@H](C)N[C@@H](C)C4)ccc3n2)cc2cn(C)nc12 [Compound 540]
IC50 (SMN2 mRNA): < 100 nM | AC50 (HTT mRNA; RT-qPCR): 100 to 1000 nM | IC50 (HTT mRNA; [1]): 1000 to 10000 nM | IC50 (HTT mRNA; [2]): 1000 to 10000 nM | IC50 (Target C): > 10000 nM | Effect of Exemplary Compounds on Cell Viability, K562 (K562 cells): A (A represents <100 nM)

Cc1c(O)c(-c2nc(-c3nn[nH]n3)c3cc(N4CCNCC4)ccc3n2)cc2cn(C)nc12 [Compound 541, 2,7-dimethyl-5-[6-(piperazin-1-yl)-4-(2H-1,2,3,4-tetrazol-5-yl)quinazolin-2-yl]indazol-6-ol]
IC50 (SMN2 mRNA): 1000 to 10000 nM | AC50 (HTT mRNA; RT-qPCR): 1000 to 10000 nM | IC50 (HTT mRNA; [1]): 1000 to 10000 nM | IC50 (HTT mRNA; [2]): 1000 to 10000 nM | IC50 (Target C): 1000 to 10000 nM | Effect of Exemplary Compounds on Cell Viability, K562 (K562 cells): C (C represents 1000-9999 nM)

C[C@@H]1CN(c2ccc3nc(-c4cc5cn(C)nc5c(F)c4O)nc(C4CC4)c3c2)C[C@H](C)N1 [Compound 542, 5-{4-cyclopropyl-6-[(3R,5S)-3,5-dimethylpiperazin-1-yl]quinazolin-2-yl}-7-fluoro-2-methylindazol-6-ol]
IC50 (SMN2 mRNA): < 100 nM | AC50 (HTT mRNA; RT-qPCR): 1000 to 10000 nM | IC50 (HTT mRNA; [1]): 1000 to 10000 nM | IC50 (HTT mRNA; [2]): 1000 to 10000 nM | IC50 (Target C): > 10000 nM | Effect of Exemplary Compounds on Cell Viability, K562 (K562 cells): B (B represents 100-1000 nM)

CN[C@@H]1CCN(c2ccc3nc(-c4cc5cn(C)nc5c(F)c4O)nc(C4CC4)c3c2)C1 [Compound 543, 5-{4-cyclopropyl-6-[(3R)-3-(methylamino)pyrrolidin-1-yl]quinazolin-2-yl}-7-fluoro-2-methylindazol-6-ol]
IC50 (SMN2 mRNA): < 100 nM | AC50 (HTT mRNA; RT-qPCR): < 100 nM | IC50 (HTT mRNA; [1]): < 100 nM | IC50 (HTT mRNA; [2]): < 100 nM | IC50 (Target C): 100 to 1000 nM | Effect of Exemplary Compounds on Cell Viability, K562 (K562 cells): A (A represents <100 nM)

Cc1cn2cc(-c3ccc4cc(N5C[C@@H](C)N[C@@H](C)C5)cc(F)c4n3)cc(F)c2n1 [Compound 544, 6-[(3R,5S)-3,5-dimethylpiperazin-1-yl]-8-fluoro-2-{8-fluoro-2-methylimidazo[1,2-a]pyridin-6-yl}quinoline]
IC50 (SMN2 mRNA): < 100 nM | AC50 (HTT mRNA; RT-qPCR): 100 to 1000 nM | IC50 (HTT mRNA; [1]): 100 to 1000 nM | IC50 (HTT mRNA; [2]): 100 to 1000 nM | IC50 (Target C): 1000 to 10000 nM | Effect of Exemplary Compounds on Cell Viability, K562 (K562 cells): B (B represents 100-1000 nM)

CNC(=O)c1nc(-c2cc3cn(C)nc3c(C)c2O)nc2ccc(N3C[C@H](C)N[C@@H](C)C3)cc12 [Compound 652, 6-[(3S,5S)-3,5-dimethylpiperazin-1-yl]-2-(6-hydroxy-2,7-dimethylindazol-5-yl)-N-methylquinazoline-4-carboxamide]
IC50 (SMN2 mRNA): < 100 nM | AC50 (HTT mRNA; RT-qPCR): 100 to 1000 nM | IC50 (HTT mRNA; [1]): 100 to 1000 nM | IC50 (HTT mRNA; [2]): 100 to 1000 nM | IC50 (Target C): > 10000 nM | Effect of Exemplary Compounds on Cell Viability, K562 (K562 cells): A (A represents <100 nM)

Cc1c(O)c(-c2ncc3cc(N4C[C@H](C)N[C@@H](C)C4)ccc3n2)cc2cn(C)nc12 [Compound 660, 5-{6-[(3S,5S)-3,5-dimethylpiperazin-1-yl]quinazolin-2-yl}-2,7-dimethylindazol-6-ol]
IC50 (SMN2 mRNA): < 100 nM | AC50 (HTT mRNA; RT-qPCR): 100 to 1000 nM | IC50 (HTT mRNA; [1]): 100 to 1000 nM | IC50 (HTT mRNA; [2]): 100 to 1000 nM | IC50 (Target C): 1000 to 10000 nM | Effect of Exemplary Compounds on Cell Viability, K562 (K562 cells): A (A represents <100 nM)

CNC(=O)c1nc(-c2cc3cn(C)nc3c(C)c2O)nc2ccc(N3CCC(N4CCC4)CC3)cc12 [Compound 706]
IC50 (SMN2 mRNA): < 100 nM | AC50 (HTT mRNA; RT-qPCR): 1000 to 10000 nM | IC50 (HTT mRNA; [1]): 100 to 1000 nM | IC50 (HTT mRNA; [2]): 100 to 1000 nM | IC50 (Target C): > 10000 nM | Effect of Exemplary Compounds on Cell Viability, K562 (K562 cells): A (A represents <100 nM)

C[C@@H]1CN(c2ccc3nc(-c4cc5cn(C)nc5c(F)c4O)nc(C#N)c3c2)C[C@H](C)N1 [Compound 707, 6-[(3R,5S)-3,5-dimethylpiperazin-1-yl]-2-(7-fluoro-6-hydroxy-2-methylindazol-5-yl) quinazoline-4-carbonitrile]
IC50 (SMN2 mRNA): < 100 nM | AC50 (HTT mRNA; RT-qPCR): 100 to 1000 nM | IC50 (HTT mRNA; [1]): 100 to 1000 nM | IC50 (HTT mRNA; [2]): 100 to 1000 nM | IC50 (Target C): 100 to 1000 nM | Effect of Exemplary Compounds on Cell Viability, K562 (K562 cells): A (A represents <100 nM)

C[C@@H]1CN(c2ccc3nc(-c4cc5cn(C)nc5c(F)c4O)nc(C(N)=O)c3c2)C[C@H](C)N1 [Compound 712, 6-[(3R,5S)-3,5-dimethylpiperazin-1-yl]-2-(7-fluoro-6-hydroxy-2-methylindazol-5-yl) quinazoline-4-carboxamide]
IC50 (SMN2 mRNA): < 100 nM | AC50 (HTT mRNA; RT-qPCR): 1000 to 10000 nM | IC50 (HTT mRNA; [1]): 1000 to 10000 nM | IC50 (HTT mRNA; [2]): 1000 to 10000 nM | IC50 (Target C): > 10000 nM | Effect of Exemplary Compounds on Cell Viability, K562 (K562 cells): A (A represents <100 nM)

CC(=O)c1nc(-c2cc3cn(C)nc3c(F)c2O)nc2ccc(N3C[C@@H](C)N[C@@H](C)C3)cc12 [Compound 717, 1-{6-[(3R,5S)-3,5-dimethylpiperazin-1-yl]-2-(7-fluoro-6-hydroxy-2-methylindazol-5-yl)quinazolin-4-yl}ethanone]
IC50 (SMN2 mRNA): < 100 nM | AC50 (HTT mRNA; RT-qPCR): 100 to 1000 nM | IC50 (HTT mRNA; [1]): 100 to 1000 nM | IC50 (HTT mRNA; [2]): 100 to 1000 nM | IC50 (Target C): 100 to 1000 nM | Effect of Exemplary Compounds on Cell Viability, K562 (K562 cells): A (A represents <100 nM)

CNC(=O)c1nc(-c2cc3cn(C)nc3c(F)c2O)nc2ccc(N3CCC(N4CCC4)CC3)cc12 [Compound 722, 6-[4-(azetidin-1-yl)piperidin-1-yl]-2-(7-fluoro-6-hydroxy-2-methylindazol-5-yl)-N-methylquinazoline-4-carboxamide]
IC50 (SMN2 mRNA): < 100 nM | AC50 (HTT mRNA; RT-qPCR): 100 to 1000 nM | IC50 (HTT mRNA; [1]): < 100 nM | IC50 (HTT mRNA; [2]): < 100 nM | IC50 (Target C): 100 to 1000 nM | Effect of Exemplary Compounds on Cell Viability, K562 (K562 cells): A (A represents <100 nM)

Cc1cc(N2C[C@@H](C)N[C@@H](C)C2)cc2c(Cl)cc(-c3cc4cn(C)nc4c(F)c3O)nc12 [Compound 723, 5-{4-chloro-6-[(3R,5S)-3,5-dimethylpiperazin-1-yl]-8-methylquinolin-2-yl}-7-fluoro-2-methylindazol-6-ol]
IC50 (SMN2 mRNA): < 100 nM | AC50 (HTT mRNA; RT-qPCR): 100 to 1000 nM | IC50 (HTT mRNA; [1]): < 100 nM | IC50 (HTT mRNA; [2]): < 100 nM | IC50 (Target C): 100 to 1000 nM | Effect of Exemplary Compounds on Cell Viability, K562 (K562 cells): A (A represents <100 nM)

CNC(=O)c1nc(-c2cc3cn(C)nc3c(F)c2O)nc2ccc(N3CCNC4(CC4)C3)cc12 [Compound 728, 6-{4,7-diazaspiro[2.5]octan-7-yl}-2-(7-fluoro-6-hydroxy-2-methylindazol-5-yl)-N-methylquinazoline-4-carboxamide]
IC50 (SMN2 mRNA): < 100 nM | AC50 (HTT mRNA; RT-qPCR): 100 to 1000 nM | IC50 (HTT mRNA; [1]): 100 to 1000 nM | IC50 (HTT mRNA; [2]): 100 to 1000 nM | IC50 (Target C): 1000 to 10000 nM | Effect of Exemplary Compounds on Cell Viability, K562 (K562 cells): A (A represents <100 nM)

CNC(=O)c1nc(-c2cc3cn(C)nc3c(F)c2O)nc2ccc(N3CC[C@@H](NC)C3)cc12 [Compound 729, 2-(7-fluoro-6-hydroxy-2-methylindazol-5-yl)-N-methyl-6-[(3R)-3-(methylamino)pyrrolidin-1-yl]quinazoline-4-carboxamide]
IC50 (SMN2 mRNA): < 100 nM | AC50 (HTT mRNA; RT-qPCR): < 100 nM | IC50 (HTT mRNA; [1]): < 100 nM | IC50 (HTT mRNA; [2]): < 100 nM | IC50 (Target C): < 100 nM | Effect of Exemplary Compounds on Cell Viability, K562 (K562 cells): A (A represents <100 nM)

C[C@@H]1CN(c2ccc3nc(-c4cc5cn(C)nc5c(F)c4O)nc(-c4nccs4)c3c2)C[C@H](C)N1 [Compound 732, 5-{6-[(3R,5S)-3,5-dimethylpiperazin-1-yl]-4-(1,3-thiazol-2-yl)quinazolin-2-yl}-7-fluoro-2-methylindazol-6-ol]
IC50 (SMN2 mRNA): 100 to 1000 nM | AC50 (HTT mRNA; RT-qPCR): > 10000 nM | IC50 (HTT mRNA; [1]): > 10000 nM | IC50 (HTT mRNA; [2]): > 10000 nM | IC50 (Target C): > 10000 nM | Effect of Exemplary Compounds on Cell Viability, K562 (K562 cells): B (B represents 100-1000 nM)

From patent publication US20250092065A1, “2-(INDAZOL-5-YL)-6-(PIPERIDIN-4-YL)-1,7-NAPHTHYRIDINE DERIVATIVES AND RELATED COMPOUNDS AS MODULATORS FOR SPLICING NUCLEIC ACIDS AND FOR THE TREATMENT OF PROLIFERATIVE DISEASES” (REMIX THERAPEUTICS INC., priority 2022, published 2025)
